The source of these data is ChEMBL document CHEMBL1148480, “Structure-activity studies of orexin a and orexin B at the human orexin 1 and orexin 2 receptors led to orexin 2 receptor selective and orexin 1 receptor preferring ligands” (J Med Chem, 2004).

The structures appear in SMILES notation. Starred links: 1 amine or outer side, 2 acyl side, 3 side chain; linkers in the order of their positions; H or OH if unused. Non-standard residues stand in square brackets, D forms with d. Residues, ends and D or L forms follow the SMILES beside them. Groups on a side chain read outwards from the residue. X2 = N=C(N)NCCC[C@@H](C(=O)[*:2])N(CCCCCC(=O)[C@H](CC(=O)O)N[*:3])[*:1]; pGlu = O=C1CC[C@@H](C(=O)O)N1

The target in one test is T1, Orexin/Hypocretin receptor type 1 (Homo sapiens, UniProt O43613).
T1 sequence (O43613 whole entry): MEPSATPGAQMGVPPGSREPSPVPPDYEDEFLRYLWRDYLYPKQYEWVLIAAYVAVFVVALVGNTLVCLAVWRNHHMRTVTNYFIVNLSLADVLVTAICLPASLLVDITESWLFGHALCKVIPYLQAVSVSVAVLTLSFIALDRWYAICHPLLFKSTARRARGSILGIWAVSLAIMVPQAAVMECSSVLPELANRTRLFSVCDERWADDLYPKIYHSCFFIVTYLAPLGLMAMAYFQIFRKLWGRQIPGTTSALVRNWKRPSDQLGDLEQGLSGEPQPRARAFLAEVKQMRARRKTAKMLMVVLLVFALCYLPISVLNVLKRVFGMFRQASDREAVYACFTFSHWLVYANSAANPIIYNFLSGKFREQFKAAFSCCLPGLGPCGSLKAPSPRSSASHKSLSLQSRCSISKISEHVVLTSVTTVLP
Nature of the test: Effective agonist concentration to human orexin receptor type 1 determined using the Xlfit program. The class given is functional.
As for `CC[C@H](C)[C@H](NC(=O)CNC(=O)[C@H](C)NC(=O)[C@H](C)NC(=O)[C@H](Cc1cnc[nH]1)NC(=O)[C@H](CC(N)=O)NC(=O)CNC(=O)[C@H](CO)NC(=O)[C@H](C)NC(=O)[C@H](CCC(N)=O)NC(=O)[C@H](CC(C)C)NC(=O)[C@H](CC(C)C)NC(=O)[C@H](CCCNC(=N)N)NC(=O)[C@H](CCC(N)=O)NC(=O)[C@H](CC(C)C)NC(=O)[C@H](CCCNC(=N)N)NC(=O)CNC(=O)[C@@H](N)CCC(N)=O)C(=O)N[C@@H](CC(C)C)C(=O)N[C@H](C(=O)N[C@@H](CCSC)C(N)=O)[C@@H](C)O` (H-QGRLQRLLQASGNHAAGILTM-NH2), the midpoint of the response, the EC50, lay at 22.2 µM.

With `CC[C@H](C)[C@H](NC(=O)CNC(=O)[C@H](C)NC(=O)[C@H](C)NC(=O)[C@H](Cc1c[nH]cn1)NC(=O)[C@H](CC(N)=O)NC(=O)CNC(=O)[C@H](CO)NC(=O)[C@H](C)NC(=O)[C@H](CCC(N)=O)NC(=O)[C@H](CC(C)C)NC(=O)[C@H](CC(C)C)NC(=O)[C@H](CCCN=C(N)N)NC(=O)[C@H](CCC(N)=O)NC(=O)[C@H](CC(C)C)NC(=O)[C@H](C)NC(=O)CNC(=O)[C@H](CCC(N)=O)NC(=O)[C@H](CC(C)C)NC(=O)CN)C(=O)N[C@@H](CC(C)C)C(=O)N[C@H](C(=O)N[C@@H](CCSC)C(=O)O)[C@@H](C)O` (H-GLQGALQRLLQASGNHAAGILTM-OH), it took 6.95 µM to reach a half-maximal effect (EC50).

Regarding `CC[C@H](C)[C@H](NC(=O)CNC(=O)[C@H](C)NC(=O)[C@H](C)NC(=O)[C@H](Cc1c[nH]cn1)NC(=O)[C@H](CC(N)=O)NC(=O)CNC(=O)[C@H](CO)NC(=O)[C@H](C)NC(=O)[C@H](CCC(N)=O)NC(=O)[C@H](CC(C)C)NC(=O)[C@H](CC(C)C)NC(=O)[C@H](CCCNC(=N)N)NC(=O)[C@H](C)NC(=O)[C@H](CC(C)C)NC(=O)[C@H](CCCNC(=N)N)NC(=O)CNC(=O)[C@H](CCC(N)=O)NC(=O)[C@H](CC(C)C)NC(=O)CN)C(=O)N[C@@H](CC(C)C)C(=O)N[C@H](C(=O)N[C@@H](CCSC)C(=O)O)[C@@H](C)O` (H-GLQGRLARLLQASGNHAAGILTM-OH), the concentration for a half-maximal effect (EC50) – broadly, the concentration at which the effect is half-maximal – was 1.3 µM.

Molecule `CC[C@H](C)[C@H](NC(=O)CNC(=O)[C@H](C)NC(=O)[C@H](C)NC(=O)[C@H](Cc1c[nH]cn1)NC(=O)[C@H](CC(N)=O)NC(=O)CNC(=O)[C@H](CO)NC(=O)[C@H](C)NC(=O)[C@H](CCC(N)=O)NC(=O)[C@H](CC(C)C)NC(=O)[C@H](CC(C)C)NC(=O)[C@H](CCCN=C(N)N)NC(=O)[C@H](CCC(N)=O)NC(=O)[C@H](CC(C)C)NC(=O)[C@H](CCCN=C(N)N)NC(=O)CNC(=O)[C@@H]1CCCN1C(=O)[C@H](CC(C)C)NC(=O)CN)C(=O)N[C@@H](CC(C)C)C(=O)N[C@H](C(=O)N[C@@H](CCSC)C(N)=O)[C@@H](C)O` (H-GLPGRLQRLLQASGNHAAGILTM-NH2) showed an EC50 of 1.2 µM. This EC50 and that of the molecule before are within 1.5-fold of each other.

The target in the next test is T2, Orexin receptor type 2 (Homo sapiens, UniProt O43614).
T2 sequence (O43614 whole entry): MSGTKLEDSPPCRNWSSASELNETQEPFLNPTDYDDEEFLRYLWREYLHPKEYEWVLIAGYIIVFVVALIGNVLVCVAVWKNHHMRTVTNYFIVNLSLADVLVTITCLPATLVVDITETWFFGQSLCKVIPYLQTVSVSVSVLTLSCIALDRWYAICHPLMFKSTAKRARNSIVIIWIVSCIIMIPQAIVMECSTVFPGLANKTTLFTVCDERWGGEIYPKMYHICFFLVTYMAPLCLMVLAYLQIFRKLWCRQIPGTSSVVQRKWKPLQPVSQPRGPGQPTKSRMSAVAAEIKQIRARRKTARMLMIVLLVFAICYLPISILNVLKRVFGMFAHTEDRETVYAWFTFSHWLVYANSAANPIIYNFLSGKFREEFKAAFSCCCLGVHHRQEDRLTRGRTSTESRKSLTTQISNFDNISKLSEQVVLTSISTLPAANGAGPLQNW
Nature of the test: Effective agonist concentration to the human Orexin receptor type 2 was determined using the Xlfit program. The class given is functional.
In turn, `CC[C@H](C)[C@H](NC(=O)CNC(=O)[C@H](C)NC(=O)[C@H](C)NC(=O)[C@H](Cc1cnc[nH]1)NC(=O)[C@H](CC(N)=O)NC(=O)CNC(=O)[C@H](C)NC(=O)CNC(=O)[C@H](Cc1cnc[nH]1)NC(=O)[C@H](CC(C)C)NC(=O)[C@H](CC(C)C)NC(=O)[C@H](CCC(=O)O)NC(=O)[C@H](Cc1ccc(O)cc1)NC(=O)[C@H](CC(C)C)NC(=O)[C@H](CCCNC(=N)N)NCCCCCC(=O)[C@H](CC(=O)O)NC(=O)[C@@H]1CCCN1C(=O)[C@H](CC(C)C)NC(=O)[C@@H]1CCCN1C(=O)[C@@H]1CCC(=O)N1)C(=O)N[C@@H](CC(C)C)C(=O)N[C@H](C(=O)N[C@@H](CC(C)C)C(=O)O)[C@@H](C)O` (H-[X2]([Pro-Leu-Pro-pGlu])LYELLHGAGNHAAGILTL-OH) registered an EC50 of 0.64 µM.

`CC[C@H](C)[C@H](NC(=O)[C@H](Cc1cnc[nH]1)NC(=O)[C@H](CC(N)=O)NC(=O)CNC(=O)[C@H](CO)NC(=O)[C@H](C)NC(=O)[C@H](CCC(N)=O)NC(=O)[C@H](CC(C)C)NC(=O)[C@H](CC(C)C)NC(=O)[C@H](CCCNC(=N)N)NC(=O)[C@H](CCC(N)=O)NC(=O)[C@H](CC(C)C)NC(=O)[C@H](CCCNC(=N)N)NC(=O)CNC(=O)[C@H](CCC(N)=O)NC(=O)[C@H](CC(C)C)NC(=O)CN)C(=O)N[C@@H](C)C(=O)NCC(=O)N[C@@H](C)C(=O)N[C@@H](CC(C)C)C(=O)N[C@H](C(=O)N[C@@H](CCSC)C(=O)O)[C@@H](C)O` gave an EC50 of 3.15 µM.

As to `CC[C@H](C)[C@H](NC(=O)CNC(=O)[C@H](C)NC(=O)[C@H](C)NC(=O)[C@H](Cc1c[nH]cn1)NC(=O)[C@H](CC(N)=O)NC(=O)CNC(=O)[C@H](CO)NC(=O)[C@H](C)NC(=O)[C@H](CCC(N)=O)NC(=O)[C@H](CC(C)C)NC(=O)[C@H](CC(C)C)NC(=O)[C@H](CCCN=C(N)N)NC(=O)[C@@H]1CCCN1C(=O)[C@H](CC(C)C)NC(=O)[C@H](CCCN=C(N)N)NC(=O)CNC(=O)[C@H](CCC(N)=O)NC(=O)[C@H](CC(C)C)NC(=O)CN)C(=O)N[C@@H](CC(C)C)C(=O)N[C@H](C(=O)N[C@@H](CCSC)C(=O)O)[C@@H](C)O` (stereo in doubt; form 2), the EC50 was found to be 0.36 µM.

The molecule `CC[C@H](C)[C@H](NC(=O)CNC(=O)[C@H](C)NC(=O)[C@H](C)NC(=O)[C@H](Cc1cnc[nH]1)NC(=O)[C@H](CC(N)=O)NC(=O)CNC(=O)[C@H](CO)NC(=O)[C@H](C)NC(=O)[C@H](CCC(N)=O)NC(=O)[C@H](CC(C)C)NC(=O)[C@H](CC(C)C)NC(=O)[C@H](CCCNC(=N)N)NC(=O)[C@H](CCC(N)=O)NC(=O)[C@H](CC(C)C)NC(=O)[C@H](CCCNC(=N)N)NC(=O)CNC(=O)[C@H](C)NC(=O)[C@H](CC(C)C)NC(=O)CN)C(=O)N[C@@H](CC(C)C)C(=O)N[C@H](C(=O)N[C@@H](CCSC)C(=O)O)[C@@H](C)O` (H-GLAGRLQRLLQASGNHAAGILTM-OH) had an EC50 of 0.24 µM.

Consider `CC[C@H](C)[C@H](NC(=O)CNC(=O)[C@H](C)NC(=O)[C@H](C)NC(=O)[C@H](Cc1c[nH]cn1)NC(=O)[C@H](CC(N)=O)NC(=O)CNC(=O)[C@H](C)NC(=O)CNC(=O)[C@H](Cc1c[nH]cn1)NC(=O)[C@H](CC(C)C)NC(=O)[C@@H](N)CC(C)C)C(=O)N[C@@H](CC(C)C)C(=O)N[C@H](C(=O)N[C@@H](CC(C)C)C(=O)O)[C@@H](C)O` (H-LLHGAGNHAAGILTL-OH), for which the concentration giving a half-maximal response (EC50) is over 1000 µM.

Molecule `CC[C@H](C)[C@H](NC(=O)CNC(=O)[C@H](C)NC(=O)[C@H](C)NC(=O)[C@H](Cc1cnc[nH]1)NC(=O)[C@H](CC(N)=O)NC(=O)CNC(=O)[C@H](CO)NC(=O)[C@H](C)NC(=O)[C@H](CCC(N)=O)NC(=O)[C@H](CC(C)C)NC(=O)[C@@H](N)CC(C)C)C(=O)N[C@@H](CC(C)C)C(=O)N[C@H](C(=O)N[C@@H](CCSC)C(=O)O)[C@@H](C)O` (H-LLQASGNHAAGILTM-OH) displayed a half-maximal effective concentration (EC50) of over 1000 µM.

As to `CC[C@H](C)[C@H](NC(=O)CNC(=O)[C@H](C)NC(=O)[C@H](C)NC(=O)[C@H](Cc1cnc[nH]1)NC(=O)[C@H](CC(N)=O)NC(=O)CNC(=O)[C@H](CO)NC(=O)[C@H](C)NC(=O)[C@H](CCC(N)=O)NC(=O)[C@H](CC(C)C)NC(=O)[C@H](CC(C)C)NC(=O)[C@H](CCCNC(=N)N)NC(=O)[C@H](CCC(N)=O)NC(=O)[C@H](CC(C)C)NC(=O)[C@H](CCCNC(=N)N)NC(=O)CNC(=O)[C@H](CCC(N)=O)NC(=O)[C@@H]1CCCN1C(=O)CN)C(=O)N[C@@H](CC(C)C)C(=O)N[C@H](C(=O)N[C@@H](CCSC)C(=O)O)[C@@H](C)O` (H-GPQGRLQRLLQASGNHAAGILTM-OH), the EC50 turned out to be 0.06 µM.

Turning to `CC[C@H](C)[C@H](NC(=O)CNC(=O)[C@H](C)NC(=O)[C@H](C)NC(=O)[C@H](Cc1c[nH]cn1)NC(=O)[C@H](CC(N)=O)NC(=O)CN)C(=O)N[C@@H](CC(C)C)C(=O)N[C@H](C(=O)N[C@@H](CC(C)C)C(=O)O)[C@@H](C)O` (H-GNHAAGILTL-OH), the half-maximal effective concentration (EC50) is over 1000 µM.

Turning to `CC[C@H](C)[C@H](NC(=O)CNC(=O)[C@H](C)NC(=O)[C@H](C)NC(=O)[C@H](Cc1cnc[nH]1)NC(=O)[C@H](CC(N)=O)NC(=O)CNC(=O)[C@H](CO)NC(=O)[C@H](C)NC(=O)[C@H](CCC(N)=O)NC(=O)[C@H](CC(C)C)NC(=O)[C@H](CC(C)C)NC(=O)[C@@H]1CCCN1C(=O)[C@H](CCC(N)=O)NC(=O)[C@H](CC(C)C)NC(=O)[C@H](CCCNC(=N)N)NC(=O)CNC(=O)[C@H](CCC(N)=O)NC(=O)[C@H](CC(C)C)NC(=O)CN)C(=O)N[C@@H](CC(C)C)C(=O)N[C@H](C(=O)N[C@@H](CCSC)C(=O)O)[C@@H](C)O` (H-GLQGRLQPLLQASGNHAAGILTM-OH), the midpoint of the response, the EC50, lay at 0.68 µM.

`CC[C@H](C)[C@H](NC(=O)CNC(=O)[C@H](C)NC(=O)[C@H](C)NC(=O)[C@H](Cc1c[nH]cn1)NC(=O)[C@H](CC(N)=O)NC(=O)CNC(=O)[C@H](CO)NC(=O)[C@H](C)NC(=O)[C@H](CCC(N)=O)NC(=O)[C@H](CC(C)C)NC(=O)[C@H](CC(C)C)NC(=O)[C@H](CCCN=C(N)N)NC(=O)[C@@H]1CCCN1C(=O)[C@H](CC(C)C)NC(=O)[C@H](CCCN=C(N)N)NC(=O)CNC(=O)[C@H](CCC(N)=O)NC(=O)[C@H](CC(C)C)NC(=O)CN)C(=O)N[C@@H](CC(C)C)C(=O)N[C@H](C(=O)N[C@@H](CCSC)C(=O)O)[C@@H](C)O` (stereo in doubt; form 1) registered an EC50 of 0.28 µM.
